Here are results for seven compounds from patent US20260201008A1, “SECRETIN-DERIVED GLP1R SELECTIVE AGONISTS” (GUBRA A/S, priority 2023, published 2026).

Numbered stars: 1 amine (or outer) side, 2 acyl side, 3 side chain; on linkers, the order of the positions; unused ones are H or OH. Square brackets hold non-standard residues; d marks the D form. Side chains are listed from the residue outwards. Peptide text beside a SMILES is read from it. * marks the point of attachment. C20 diacid = O=C(O)CCCCCCCCCCCCCCCCCCC(=O)*; γGlu = O=C(O)[C@H](CCC(=O)[*:2])N[*:1]; AEEA = NCCOCCOCC(=O)O; Aib = CC(C)(N)C(=O)O

The nature of series [1]: Turbidity of crude library peptides (absorbance at 600 nm). It counts as physicochemical. The settings on record: Physical stability of peptides. An outline of the steps: (§1)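 Turbidity is the absorbance at 600 nm, taken before heating. Fibril signal is the mean ThT emission at 480 nm (450 nm excitation), read every 10 min over 72 h at 40° C with 700 rpm shaking between reads. Peptides at 267 μM, pH 4.0 acetate or pH 7.0 phosphate buffer (50 mM), 4 μM ThT final.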

Series [2] in a line: Fibril formation of crude library peptides (Thioflavin T). The following applies: Physical stability of peptides. Further details: key: average ThT fluorescence emission at 480 nm (ex 450 nm), raw units. It counts as physicochemical. A digest of the protocol:
as §1

The target of a further series is GLP1R (Homo sapiens, UniProt P43220). The experiment in a line: hGLP1R potency, cAMP accumulation in CHO-K1 cells stably overexpressing hGLP1R. In kind it is cell-based. More on the design: host or cells: CHO-K1. The following applies: for Selectivity: SCTR EC50/GLP1R EC50 ratio; for EC50: cAMP accumulation, CHO-K1 cells overexpressing hGLP1R, read-out: pEC50 hGLPR1 (converted). An outline of the steps:
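EC50 derives from variable-slope nonlinear regression of cAMP HTRF signal, with purified peptides tested as 11 three-fold dilutions in duplicate. Assay: hGLP1R-overexpressing CHO-K1 cells, 0.5 mM IBMX, 0.05% casein in DPBS, 30 min room-temperature stimulation, GLP-1(7-36) as reference agonist.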

The next series addresses SCTR (Homo sapiens, UniProt P47872). The experiment in a line: hSCTR potency, cAMP accumulation in CHO-K1 cells stably overexpressing hSCTR. It counts as cell-based. More on the design: alternatively Euroscreen ES-712-AF; FAST-0161L; host or cells: CHO-K1. The following applies: cAMP accumulation, CHO-K1 cells overexpressing hSCTR; read-out: pEC50 hSCTR (converted). A digest of the protocol:
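EC50 derived from variable-slope nonlinear regression on 11-point, 3-fold series run in duplicate (crude peptides: 5 points, 10-fold, n=1). Compound stimulation lasted 30 min at room temperature in casein/IBMX-containing DPBS (0.05%, 0.5 mM), 2000 cells/well; cAMP detected by time-resolved FRET after one hour.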

Sequence of SCTR (P47872 23-440): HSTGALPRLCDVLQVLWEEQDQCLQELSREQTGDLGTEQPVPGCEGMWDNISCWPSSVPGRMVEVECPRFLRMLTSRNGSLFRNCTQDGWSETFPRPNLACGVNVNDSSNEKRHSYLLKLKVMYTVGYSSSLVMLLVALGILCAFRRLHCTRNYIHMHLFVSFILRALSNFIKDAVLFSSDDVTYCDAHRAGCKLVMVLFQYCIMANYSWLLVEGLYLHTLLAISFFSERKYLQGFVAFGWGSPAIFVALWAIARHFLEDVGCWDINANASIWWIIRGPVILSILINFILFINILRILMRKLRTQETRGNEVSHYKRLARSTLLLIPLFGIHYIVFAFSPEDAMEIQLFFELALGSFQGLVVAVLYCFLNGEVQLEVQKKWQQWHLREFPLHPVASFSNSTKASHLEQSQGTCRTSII
Sequence of GLP1R (P43220 24-463): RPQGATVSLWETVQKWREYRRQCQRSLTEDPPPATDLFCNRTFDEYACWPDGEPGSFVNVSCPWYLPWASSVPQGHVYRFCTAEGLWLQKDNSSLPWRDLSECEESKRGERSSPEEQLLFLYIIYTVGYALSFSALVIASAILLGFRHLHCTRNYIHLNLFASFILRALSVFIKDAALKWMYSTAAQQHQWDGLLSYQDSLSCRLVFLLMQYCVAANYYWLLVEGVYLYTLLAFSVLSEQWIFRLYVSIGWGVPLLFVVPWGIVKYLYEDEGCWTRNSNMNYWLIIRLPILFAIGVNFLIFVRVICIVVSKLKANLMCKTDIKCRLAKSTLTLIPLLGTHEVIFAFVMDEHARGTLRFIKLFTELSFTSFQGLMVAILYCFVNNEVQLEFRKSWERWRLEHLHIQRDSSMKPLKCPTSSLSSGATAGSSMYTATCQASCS

With `CC(C)C[C@H](NC(=O)[C@H](Cc1ccccc1)NC(=O)[C@H](CCCNC(=N)N)NC(=O)[C@H](CCC(N)=O)NC(=O)[C@H](CO)NC(=O)[C@H](C)NC(=O)[C@H](C)NC(=O)C(C)(C)NC(=O)[C@H](CCC(=O)O)NC(=O)[C@H](CCCCNC(=O)COCCOCCNC(=O)COCCOCCNC(=O)CC[C@H](NC(=O)CCCCCCCCCCCCCCCCCCC(=O)O)C(=O)O)NC(=O)[C@H](CC(C)C)NC(=O)[C@H](Cc1ccccc1)NC(=O)[C@H](CO)NC(=O)[C@@H](NC(=O)[C@H](CC(=O)O)NC(=O)[C@H](CO)NC(=O)[C@@H](NC(=O)[C@H](Cc1ccccc1)NC(=O)[C@@H](NC(=O)CNC(=O)[C@H](CCC(=O)O)NC(=O)C(C)(C)NC(=O)[C@@H](N)Cc1c[nH]cn1)[C@@H](C)O)[C@@H](C)O)C(C)C)C(=O)N[C@@H](CCC(=O)O)C(=O)N[C@@H](Cc1c[nH]cn1)C(=O)N[C@@H](CC(C)C)C(=O)N[C@H](C(N)=O)C(C)C` [compound 74] (H-H[Aib]EGTFTSDVSFLK([AEEA-AEEA-γGlu-C20 diacid])E[Aib]AASQRFLEHLV-NH2), the “Turbidity (pH 7)” value in series [1] worked out at 0.08. In series [2], this compound showed a Fibril formation of 12039. Besides, on GLP1R, the Selectivity is 231739 and the EC50 was 0.0631 nM. Besides, the EC50 at SCTR was 12600 nM.
Regarding `CC(C)C[C@H](NC(=O)[C@H](Cc1ccccc1)NC(=O)[C@H](CCCNC(=N)N)NC(=O)[C@H](CCC(N)=O)NC(=O)[C@H](CO)NC(=O)[C@H](C)NC(=O)[C@H](C)NC(=O)[C@H](CCC(=O)O)NC(=O)[C@H](CCC(=O)O)NC(=O)[C@H](CCCCNC(=O)COCCOCCNC(=O)COCCOCCNC(=O)CC[C@H](NC(=O)CCCCCCCCCCCCCCCCCCC(=O)O)C(=O)O)NC(=O)[C@H](CC(C)C)NC(=O)[C@H](Cc1ccc(O)cc1)NC(=O)[C@H](CO)NC(=O)[C@@H](NC(=O)[C@H](CC(=O)O)NC(=O)[C@H](CO)NC(=O)[C@@H](NC(=O)[C@H](Cc1ccccc1)NC(=O)[C@@H](NC(=O)CNC(=O)[C@H](CCC(=O)O)NC(=O)C(C)(C)NC(=O)[C@@H](N)Cc1c[nH]cn1)[C@@H](C)O)[C@@H](C)O)C(C)C)C(=O)N[C@@H](CCC(=O)O)C(=O)N[C@@H](Cc1c[nH]cn1)C(=O)N[C@@H](CC(C)C)C(=O)N[C@H](C(N)=O)C(C)C` [compound 75] (H-H[Aib]EGTFTSDVSYLK([AEEA-AEEA-γGlu-C20 diacid])EEAASQRFLEHLV-NH2), in series [1], the “Turbidity (pH 7)” value came out at 0.08. In series [2], the Fibril formation was found to be 9457. Also, on GLP1R, the Selectivity was 133506 and the EC50 is 0.0251 nM. Moreover, on SCTR, the EC50 is 3160 nM.
The corresponding values for `CC(C)C[C@H](NC(=O)[C@H](Cc1ccccc1)NC(=O)[C@H](CCCNC(=N)N)NC(=O)[C@H](CCC(N)=O)NC(=O)[C@H](CCC(N)=O)NC(=O)[C@H](C)NC(=O)[C@H](C)NC(=O)[C@H](Cc1ccccc1)NC(=O)[C@H](CCC(=O)O)NC(=O)[C@H](CCCCNC(=O)COCCOCCNC(=O)COCCOCCNC(=O)CC[C@H](NC(=O)CCCCCCCCCCCCCCCCCCC(=O)O)C(=O)O)NC(=O)[C@H](CC(C)C)NC(=O)[C@H](Cc1ccc(O)cc1)NC(=O)[C@H](CO)NC(=O)[C@@H](NC(=O)[C@H](CC(=O)O)NC(=O)[C@H](CO)NC(=O)[C@@H](NC(=O)[C@H](Cc1ccccc1)NC(=O)[C@@H](NC(=O)CNC(=O)[C@H](CCC(=O)O)NC(=O)C(C)(C)NC(=O)[C@@H](N)Cc1c[nH]cn1)[C@@H](C)O)[C@@H](C)O)C(C)C)C(=O)N[C@@H](CCC(=O)O)C(=O)N[C@@H](Cc1c[nH]cn1)C(=O)N[C@@H](CC(C)C)C(=O)N[C@H](C(N)=O)C(C)C` [compound 76] (H-H[Aib]EGTFTSDVSYLK([AEEA-AEEA-γGlu-C20 diacid])EFAAQQRFLEHLV-NH2) are 0.08, 20479, 122180, 0.0794 nM and 10000 nM.
For `CC(C)C[C@H](NC(=O)[C@H](Cc1ccccc1)NC(=O)[C@H](CCCNC(=N)N)NC(=O)[C@H](CCC(N)=O)NC(=O)C(C)(C)NC(=O)[C@H](C)NC(=O)[C@H](C)NC(=O)[C@H](CCC(=O)O)NC(=O)[C@H](CCC(=O)O)NC(=O)[C@H](CCCCNC(=O)COCCOCCNC(=O)COCCOCCNC(=O)CC[C@H](NC(=O)CCCCCCCCCCCCCCCCCCC(=O)O)C(=O)O)NC(=O)[C@H](CC(C)C)NC(=O)[C@@H](NC(=O)[C@H](CO)NC(=O)[C@@H](NC(=O)[C@H](CC(=O)O)NC(=O)[C@H](CO)NC(=O)[C@@H](NC(=O)[C@H](Cc1ccccc1)NC(=O)[C@@H](NC(=O)CNC(=O)[C@H](CCC(=O)O)NC(=O)C(C)(C)NC(=O)[C@@H](N)Cc1c[nH]cn1)[C@@H](C)O)[C@@H](C)O)C(C)C)[C@@H](C)O)C(=O)N[C@@H](CCC(=O)O)C(=O)N[C@@H](Cc1c[nH]cn1)C(=O)N[C@@H](CC(C)C)C(=O)N[C@H](C(N)=O)C(C)C` [compound 77] (H-H[Aib]EGTFTSDVSTLK([AEEA-AEEA-γGlu-C20 diacid])EEAA[Aib]QRFLEHLV-NH2), in series [1], the “Turbidity (pH 7)” value is on record as 0.08. Further, in series [2], the Fibril formation was 11936. In addition, the Selectivity at GLP1R amounted to 74783. The EC50 at GLP1R was 0.02 nM; on SCTR, 1580 nM.
The corresponding values for `CC(C)C[C@H](NC(=O)[C@H](CCC(=O)O)NC(=O)[C@H](CCCCNC(=O)COCCOCCNC(=O)COCCOCCNC(=O)CC[C@H](NC(=O)CCCCCCCCCCCCCCCCCCC(=O)O)C(=O)O)NC(=O)[C@H](CC(C)C)NC(=O)[C@@H](NC(=O)[C@H](CO)NC(=O)[C@@H](NC(=O)[C@H](CC(=O)O)NC(=O)[C@H](CO)NC(=O)[C@@H](NC(=O)[C@H](Cc1ccccc1)NC(=O)[C@@H](NC(=O)CNC(=O)[C@H](CCC(=O)O)NC(=O)C(C)(C)NC(=O)[C@@H](N)Cc1c[nH]cn1)[C@@H](C)O)[C@@H](C)O)C(C)C)[C@@H](C)O)C(=O)N[C@@H](C)C(=O)N[C@@H](C)C(=O)N[C@@H](CCC(=O)O)C(=O)N[C@@H](CCC(N)=O)C(=O)N[C@@H](CCCNC(=N)N)C(=O)N[C@@H](Cc1ccccc1)C(=O)N[C@@H](CC(C)C)C(=O)N[C@@H](CCC(=O)O)C(=O)N[C@@H](Cc1c[nH]cn1)C(=O)N[C@@H](CC(C)C)C(=O)N[C@H](C(N)=O)C(C)C` [compound 78] (H-H[Aib]EGTFTSDVSTLK([AEEA-AEEA-γGlu-C20 diacid])ELAAEQRFLEHLV-NH2) are 0.08, 8551, 72127, 0.0501 nM and 3980 nM.
In the case of `CC(C)C[C@H](NC(=O)[C@H](CCC(=O)O)NC(=O)[C@H](CCCCNC(=O)COCCOCCNC(=O)COCCOCCNC(=O)CC[C@H](NC(=O)CCCCCCCCCCCCCCCCCCC(=O)O)C(=O)O)NC(=O)[C@H](CC(C)C)NC(=O)[C@@H](NC(=O)[C@H](CO)NC(=O)[C@@H](NC(=O)[C@H](CC(=O)O)NC(=O)[C@H](CO)NC(=O)[C@@H](NC(=O)[C@H](Cc1ccccc1)NC(=O)[C@@H](NC(=O)CNC(=O)[C@H](CCC(=O)O)NC(=O)C(C)(C)NC(=O)[C@@H](N)Cc1c[nH]cn1)[C@@H](C)O)[C@@H](C)O)C(C)C)[C@@H](C)O)C(=O)N[C@@H](C)C(=O)N[C@@H](C)C(=O)NC(C)(C)C(=O)N[C@@H](CCC(N)=O)C(=O)N[C@@H](CCCNC(=N)N)C(=O)N[C@@H](Cc1ccccc1)C(=O)N[C@@H](CC(C)C)C(=O)N[C@@H](CCC(=O)O)C(=O)N[C@@H](Cc1c[nH]cn1)C(=O)N[C@@H](CC(C)C)C(=O)N[C@H](C(N)=O)C(C)C` [compound 79] (H-H[Aib]EGTFTSDVSTLK([AEEA-AEEA-γGlu-C20 diacid])ELAA[Aib]QRFLEHLV-NH2), in series [1], the “Turbidity (pH 7)” value was found to be 0.08. The compound further had a Fibril formation in series [2] of 12190. Besides, on GLP1R, the Selectivity is 30234 and the EC50 is 0.1 nM. The EC50 on SCTR is 3160 nM.
Regarding `CC(C)C[C@H](NC(=O)[C@H](CCC(=O)O)NC(=O)[C@H](CCCCNC(=O)COCCOCCNC(=O)COCCOCCNC(=O)CC[C@H](NC(=O)CCCCCCCCCCCCCCCCCCC(=O)O)C(=O)O)NC(=O)[C@H](CC(C)C)NC(=O)[C@H](CCC(=O)O)NC(=O)[C@H](CO)NC(=O)[C@@H](NC(=O)[C@H](CC(=O)O)NC(=O)[C@H](CO)NC(=O)[C@@H](NC(=O)[C@H](Cc1ccccc1)NC(=O)[C@@H](NC(=O)CNC(=O)[C@H](CCC(=O)O)NC(=O)C(C)(C)NC(=O)[C@@H](N)Cc1c[nH]cn1)[C@@H](C)O)[C@@H](C)O)C(C)C)C(=O)N[C@@H](C)C(=O)N[C@@H](C)C(=O)N[C@H](C(=O)N[C@@H](CCC(N)=O)C(=O)N[C@@H](CCCNC(=N)N)C(=O)N[C@@H](Cc1ccccc1)C(=O)N[C@@H](CC(C)C)C(=O)N[C@@H](CCC(=O)O)C(=O)N[C@@H](Cc1c[nH]cn1)C(=O)N[C@@H](CC(C)C)C(=O)N[C@H](C(N)=O)C(C)C)[C@@H](C)O` [compound 80] (H-H[Aib]EGTFTSDVSELK([AEEA-AEEA-γGlu-C20 diacid])ELAATQRFLEHLV-NH2), the “Turbidity (pH 7)” value in series [1] is given as 0.08. In series [2], this compound returned a Fibril formation of 6999. Also, on GLP1R, the Selectivity was found to be 33512 and the EC50 is 0.02 nM. Besides, the EC50 at SCTR is 794 nM.
